The target in assay [1] is T1, HTR1A (Homo sapiens, UniProt P08908).
T1 construct: purchased Promega (in-house HiBiT-GPCR construct library, NanoBRET)
T1 sequence (P08908 1-422): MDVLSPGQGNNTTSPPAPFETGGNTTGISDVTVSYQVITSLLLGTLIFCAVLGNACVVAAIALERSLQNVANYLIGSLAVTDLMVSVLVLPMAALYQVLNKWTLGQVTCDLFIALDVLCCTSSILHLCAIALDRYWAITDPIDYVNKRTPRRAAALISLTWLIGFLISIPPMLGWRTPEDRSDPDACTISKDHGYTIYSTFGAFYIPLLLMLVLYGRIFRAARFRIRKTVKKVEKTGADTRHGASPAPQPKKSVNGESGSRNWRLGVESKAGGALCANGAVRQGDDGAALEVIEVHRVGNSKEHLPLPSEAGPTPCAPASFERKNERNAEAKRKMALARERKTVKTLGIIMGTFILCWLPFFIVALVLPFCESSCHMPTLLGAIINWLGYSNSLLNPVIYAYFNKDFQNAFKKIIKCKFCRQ
The assay is described as follows: NanoBRET screen HiBiT-HTR1A in HEK293. Type of assay: binding. The procedure: (§1) Each tracer candidate was screened across the entire library of HiBiT-GPCR constructs using NanoBRET as the detection modality. As depicted in Figure 4A, the specificity of interactions was evaluated through decrease in BRET due to competitive displacement of a bound tracer by excess parental compound. Each tracer was analyzed for binding to each HiBiT-GPCR fusion in the absence and in the presence of competing parental compound. Briefly, HEK293 cells were transfected with HiBiT-GPCR constructs diluted into promoterless DNA to reduce expression and maximize translocation to the cell surface. Each tracer candidate was then screened at concentrations of 1 μM and 0.1 μM across cells expressing these fusions. Cells were treated for 1.5 h with tracer either alone or in the presence of 20 μM competing parental compound (i.e., control). BRET was measured upon addition of purified LgBiT and subsequent complementation with HiBiT genetically fused to a GPCR. The specificity of interactions was assessed through a decrease in BRET signal due to competitive displacement of the bound tracer. To further gauge the robustness of these interactions, the fold response over the control (i.e., BRETtracer/BRETcontrol) was calculated. We chose a 1.5-fold response, which translates to ≥7-fold signal over noise as the minimal threshold required to score an interaction as positive.
(§2) HiBiT-GPCR DNA constructs were diluted in 10 mM Tris pH 8 to a final concentration of 0.01 μg/μL, arrayed in 96-well plates and stored at −20 °C. For transfection, HEK293 cells were suspended in Opti-MEM (without phenol red) supplemented with 2% fetal bovine serum (Seradigm) and 100 units/mL penicillin–streptomycin (Gibco) at a final concentration of 220,000 cells/mL and dispensed into white 96-well plates at 90 μL/well. Subsequent transfections and screens were carried using an Agilent Bravo Automated Liquid Handling Platform. First, the 96-well HiBiT DNA arrays were diluted 25-fold in Opti-MEM (without serum or phenol red) to a final concentration of 0.0004 μg/μL and 20 μL of the diluted DNAs were transferred into new 96-well plates. Next, promoterless carrier DNA (1 μg/μL) was diluted 25-fold (0.04 μg/μL) and then dispensed into the diluted arrays at 20 μL/well. Following brief mixing, Viafect transfection reagent (Promega) diluted 16-fold into Opti-MEM was dispensed into the plates at 40 μL/well. After mixing by pipetting, plates were incubated for 10 min on the pipetting station deck. The DNA-transfection reagent complexes were then added to plates containing cells. To facilitate the screen, 10 μL of DNA-transfection reagent complexes were added in duplicates to the top 4 and bottom 4 rows, resulting in two identical 48-well arrays per plate. Plates with transfected cells were incubated for 18–20 h at 37 °C/5% CO2. A screen of each tracer across the entire library using two different concentrations requires duplicate plates of transfected cells. Depending on the number of tracers being screened, transfections can be scaled up using the same ratios. The next day, for each tracer, four 20× screening solutions in tracer dilution buffer (Promega) were prepared: two duplicates at final concentration of 20 μM and two duplicates at a final concentration of 2 μM. […] The four resulting solutions were diluted 4-fold in Opti-MEM without serum or phenol red to generate 5× solutions (5 µM and 0.5 µM tracer +/− 100 μM competing compound). To screen the library, a BioTek MultiFlo FX liquid dispenser was used to dispense 22.5 µL of tracer solution to the top 4 rows and 22.5 µL tracer + competing compound solution to the 4 bottom rows. Plates were briefly mixed on an orbital shaker and incubated for 1.5 h at room temperature. […] Plates were briefly mixed on an orbital shaker and incubated for 15 min to allow complementation.
Background: Bioluminescence resonance energy transfer reports proximity on the nanometre scale.

The target in assay [2] is T2, ADRB2 (Homo sapiens, UniProt P07550).
T2 construct: purchased Promega (in-house HiBiT-GPCR construct library, NanoBRET)
T2 sequence (P07550 whole entry): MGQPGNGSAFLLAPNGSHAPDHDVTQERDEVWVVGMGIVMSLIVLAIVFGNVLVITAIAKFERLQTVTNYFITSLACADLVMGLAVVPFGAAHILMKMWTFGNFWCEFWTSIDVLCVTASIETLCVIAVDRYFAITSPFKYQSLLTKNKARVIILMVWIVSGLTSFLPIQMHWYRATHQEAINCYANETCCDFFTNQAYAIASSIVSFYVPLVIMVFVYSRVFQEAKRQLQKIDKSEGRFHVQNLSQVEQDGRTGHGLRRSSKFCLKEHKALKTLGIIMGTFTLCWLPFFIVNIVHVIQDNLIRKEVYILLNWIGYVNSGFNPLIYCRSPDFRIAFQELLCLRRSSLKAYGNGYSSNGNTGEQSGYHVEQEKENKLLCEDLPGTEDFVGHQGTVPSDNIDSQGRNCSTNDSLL
The assay is described as follows: NanoBRET screen HiBiT-ADRB2 in HEK293. The format is binding. The procedure: as §1, §2

Regarding `O=C(CCOCCOCCOCCOCCNC(=O)CCc1ccc2n1[B-](F)(F)[N+]1=C(c3ccc[nH]3)C=CC1=C2)NCCCN1CCN(C2=Nc3ccccc3Oc3ccc(Cl)cc32)CC1` [Loxapine-a-2-NB590], the “NanoBRET Fold Response” value in assay [1] (HTR1A, tracer 0.1μM) is on record as 1.15; in assay [1] (HTR1A, tracer 1μM) it was 1.19; in assay [2] (ADRB2, tracer 0.1μM), 1.06; in assay [2] (ADRB2, tracer 1μM), 0.94.
`CN(CCC=C1c2ccccc2CCc2ccccc21)C(=O)CCOCCOCCOCCOCCNC(=O)CCc1ccc2n1[B-](F)(F)[N+]1=C(c3ccc[nH]3)C=CC1=C2` [Amitriptyline-e-2-NB590]: the “NanoBRET Fold Response” value in assay [1] (tracer at 1μM) worked out at 0.99; in assay [2] (tracer at 1μM), 1.04.
As for `CCCn1c(=O)c2[nH]c(-c3ccc(OCC(=O)NCCNC(=O)CCOCCNC(=O)c4ccc(CNC(=O)CCc5ccc6n5[B-](F)(F)[N+]5=C(c7ccc[nH]7)C=CC5=C6)cc4)cc3)nc2n(CCC)c1=O` [XAC-3-NB590], the “NanoBRET Fold Response” value worked out at 1.01 in assay [1] (HTR1A, tracer 0.1μM); 0.89 in assay [1] (HTR1A, tracer 1μM); 1.04 in assay [2] (ADRB2, tracer 0.1μM); 1.10 in assay [2] (ADRB2, tracer 1μM).
Turning to `CN(C)CCC=C1c2ccccc2CCc2ccc(C(=O)NCCNC(=O)CCOCCOCCOCCOCCNC(=O)CCc3ccc4n3[B-](F)(F)[N+]3=C(c5ccc[nH]5)C=CC3=C4)cc21` [Amitriptyline-a-2-NB590], the “NanoBRET Fold Response” value in assay [1] (tracer at 0.1μM) is 1.33; in assay [1] (tracer at 1μM), 1.04; in assay [2] (tracer at 0.1μM), 1.04; in assay [2] (tracer at 1μM), 1.03.
As for `CCOC(=O)c1cc(C#N)c(N2CCC(C(=O)NS(=O)(=O)Cc3ccccc3/C=C/C(=O)NCCNC(=O)CCc3ccc4n3[B-](F)(F)[N+]3=C(c5ccc[nH]5)C=CC3=C4)CC2)nc1C` [AZD1283-1-NB590], the “NanoBRET Fold Response” value in assay [1] (HTR1A, 0.1μM) is recorded as 0.97; in assay [1] (HTR1A, 1μM) it was 1.04; in assay [2] (ADRB2, 0.1μM) it was 1.01; in assay [2] (ADRB2, 1μM) it was 1.06.

The record behind these values is paper PMC8151276, “An Integrated Approach toward NanoBRET Tracers for Analysis of GPCR Ligand Engagement” (Molecules, 2021).
